Results published in ChEMBL document CHEMBL1144991, “Autoradiographic visualization of corticotropin releasing hormone type 1 receptors with a nonpeptide ligand: synthesis of [(76)Br]MJL-1-109-2” (J Med Chem, 2003).

Biological target: T1, Corticotropin-releasing factor receptor 1 (Rattus norvegicus, UniProt P35353)
T1 sequence (P35353 whole entry): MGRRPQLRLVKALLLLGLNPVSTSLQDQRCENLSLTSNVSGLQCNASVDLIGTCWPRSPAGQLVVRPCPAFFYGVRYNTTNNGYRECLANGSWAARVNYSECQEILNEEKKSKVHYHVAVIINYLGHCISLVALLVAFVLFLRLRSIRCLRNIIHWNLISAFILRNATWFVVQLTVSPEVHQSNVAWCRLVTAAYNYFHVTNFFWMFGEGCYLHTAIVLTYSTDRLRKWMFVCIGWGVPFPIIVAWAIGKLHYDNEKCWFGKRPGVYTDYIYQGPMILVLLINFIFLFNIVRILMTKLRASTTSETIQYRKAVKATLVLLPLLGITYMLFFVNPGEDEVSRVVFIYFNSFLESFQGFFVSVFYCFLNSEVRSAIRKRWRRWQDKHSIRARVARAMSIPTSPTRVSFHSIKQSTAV
Experiment: Affinity for the Corticotropin releasing factor receptor 1 (CRHR1) was determined in rat brain
Assay type: tissue-based

| SMILES | Ki |
| --- | --- |
| COCCN(CCOC)c1nc(C)nc2c(-c3ccc(Br)cc3Cl)c(C)nn12 | 1.9 nM |
| CCCCN(CC)c1nc(C)nc2c1c(C)c(C)n2-c1c(C)cc(C)cc1C [ANTALARMIN] | 1 nM |
